Results as given in patent US11324768B2, “Applications of triacetyl-3-hydroxyl phenyl adenosine in treating vascular inflammations or improving vascular endothelium functions” (priority 2016, dated 2022).

Legend:
TNF-α = test: Serum inflammatory factor TNF-α in ApoE−/− mice (ELISA); type: in vivo; design: unit not given here
Procedure: After 1 week of adaptive feeding, the animals were randomly divided into 7 groups according to body weight: normal control group, model control group A769662 (30 mg/kg) administration group, metformin (260 mg/kg) administration group, IMM-H007 low, medium, and high administration groups (50, 100, 200 mg/kg), 8 in each group, and were given a high-fat diet (78.6% basal diet, 10% lard, 1.0% cholesterol, 10% egg yolk powder, and 0.4% bile salt), […] body weight, and were continuously administered and fed for 8 weeks to establish an atherosclerosis model.
(2) Effect of IMM-H007 on Serum Inflammatory Factors TNF-α and VCAM-1 in ApoE−/− Mice
Operated according to kit instructions

[1] = tested on: third-order mesenteric artery; test: Mesenteric microvascular endothelial function in ApoE−/− mice (pressure myography, Ach / SNP relaxation); type: in vivo
Procedure: After 1 week of adaptive feeding, the animals were randomly divided into 7 groups according to body weight: normal control group, model control group A769662 (30 mg/kg) administration group, metformin (260 mg/kg) administration group, IMM-H007 low, medium, and high administration groups (50, 100, 200 mg/kg), 8 in each group, and were given a high-fat diet (78.6% basal diet, 10% lard, 1.0% cholesterol, 10% egg yolk powder, and 0.4% bile salt), and simultaneously administered intragastrically at a dose of 0.1 ml/10 g body weight, and were continuously administered and fed for 8 weeks to establish an atherosclerosis model.
PSS and KPSS solutions were configured according to the instructions and used at the same time of the day. The PSS solution was taken out before the start of the experiment and pre-oxygenated for about 20 min. The ApoE−/− mice, which were fed with high-fat and simultaneously administered for 10 weeks, were anesthetized with pentobarbital sodium. The mice were supine and fixed. The abdominal cavity was opened along the median line. The mesenteric vascular bed was isolated and placed in the pre-oxygenated 20-minute PSS buffer. Under a stereomicroscope, a third-order mesenteric artery with a length of about 3 mm was carefully isolated. Firstly, the blood vessel was fixed to a P1 glass cannula and the coil was tightened. Note: the proximal end should be connected to the P1 end, and the P2 end vessel should be fixed and the coil should be tightened. The Chamber was placed on a objective table of the microscope and the data connection between Chamber and Interface was checked. The bath cover was covered and the oxygen was introduced, to exhaust air in the pipeline. The blood vessel image was found under the microscope and then the microscope was turned to camera mode. (The knob on the side of the eyepiece was rotated to graph.) MyoVIEW software was opened. The Camera window Capture was clicked to display the blood vessel image. The equilibration of blood vessels slowly rose from 10 mmHg to 60 mmHg, and each step was 300 s. After the equilibration procedure was completed, the solution in the bath was drained. Blood vessels were stimulated (10 ml) for 2 min using a 37° C. pre-heated KPSS solution, and changes in vasoconstriction were observed, and the blood vessels were then eluted using the PSS solution to baseline. The blood vessels were equilibrated at 60 mmHg 37° C. for 45 minutes, during which time the fluid was replaced every 20 minutes. The experiment was started: observing the vasodilatory response induced by 10^−10 to 10^−5 M Ach after pre-contraction with 2 μM phenylephrine, to evaluate the effect of the drugs on the vascular endothelial function. At the end of the experiment, the fresh 37° C. pre-heated PSS buffer was replaced for equilibration for 30 min, and the 10^−10M to 10^−3 M sodium nitroprusside were given to induce vasodilatory response after pre-contraction with 2 μM phenylephrine, to evaluate the effect of the drugs on vascular smooth muscle function. LD1 was the diameter of blood vessel after relaxation by administration of different concentrations of ACh or sodium nitroprusside, LD2 was the diameter of blood vessels after pre-contraction with phenylephrine, and LD3 represented the maximum diastolic diameter of blood vessel without any stimulant.
The relaxation response to Ach and sodium nitroprusside after pre-contraction with phenylephrine was expressed as the percentage increase in the vascular diameter: % Relaxation=(LD1−LD2)/(LD3−LD2)×100.

CC(=O)OCC1OC(n2cnc3c(Nc4cccc(O)c4)ncnc32)C(OC(C)=O)C1OC(C)=O (stereo not shown) [IMM-H007, 2′,3,′ 5′-triacetyl-N^6(3-hydroxyphenyl)adenosine]
serum TNF-α (TNF-α; 100 mg/kg): 256.3 ± 46.4
serum TNF-α (TNF-α; 200 mg/kg): 250.2 ± 27.8
sodium nitroprusside endothelium-independent relaxation of microvascular ([1]; 50 mg/kg, 1 × 10^−3 M SNP): 96.5 ± 6.3%
sodium nitroprusside endothelium-independent relaxation of microvascular ([1]; 50 mg/kg, 1 × 10^−4 M SNP): 80.3 ± 12.1%
acetylcholine-induced endothelium-dependent relaxation of microvascular ([1]; 50 mg/kg, 1 × 10^−5 M Ach): 95.0 ± 4.4 %
sodium nitroprusside endothelium-independent relaxation of microvascular ([1]; 50 mg/kg, 1 × 10^−5 M SNP): 74.5 ± 12.8%
acetylcholine-induced endothelium-dependent relaxation of microvascular ([1]; 50 mg/kg, 1 × 10^−6 M Ach): 87.3 ± 5.0 %
sodium nitroprusside endothelium-independent relaxation of microvascular ([1]; 50 mg/kg, 1 × 10^−6 M SNP): 66.4 ± 11.6%
acetylcholine-induced endothelium-dependent relaxation of microvascular ([1]; 50 mg/kg, 1 × 10^−7 M Ach): 48.7 ± 12.8%
sodium nitroprusside endothelium-independent relaxation of microvascular ([1]; 50 mg/kg, 1 × 10^−7 M SNP): 60.9 ± 8.5%
acetylcholine-induced endothelium-dependent relaxation of microvascular ([1]; 50 mg/kg, 1 × 10^−8 M Ach): 29.3 ± 21.8%
sodium nitroprusside endothelium-independent relaxation of microvascular ([1]; 50 mg/kg, 1 × 10^−8 M SNP): 52.9 ± 14.2%
acetylcholine-induced endothelium-dependent relaxation of microvascular ([1]; 50 mg/kg, 1 × 10^−9 M Ach): 12.9 ± 12.6%
sodium nitroprusside endothelium-independent relaxation of microvascular ([1]; 50 mg/kg, 1 × 10^−9 M SNP): 43.9 ± 18.2%
acetylcholine-induced endothelium-dependent relaxation of microvascular ([1]; 50 mg/kg, 1 × 10^−10 M Ach): 5.0 ± 5.1%
sodium nitroprusside endothelium-independent relaxation of microvascular ([1]; 50 mg/kg, 1 × 10^−10 M SNP): 19.9 ± 10.1%
microvascular endothelial dysfunction caused by high fat ([1]; 50 mg/kg, compared with the model control group): significantly improve
sodium nitroprusside endothelium-independent relaxation of microvascular ([1]; 100 mg/kg, 1 × 10^−3 M SNP): 96.5 ± 3.6%
sodium nitroprusside endothelium-independent relaxation of microvascular ([1]; 100 mg/kg, 1 × 10^−4 M SNP): 87.5 ± 10.9%
acetylcholine-induced endothelium-dependent relaxation of microvascular ([1]; 100 mg/kg, 1 × 10^−5 M Ach): 93.9 ± 12.9 %
sodium nitroprusside endothelium-independent relaxation of microvascular ([1]; 100 mg/kg, 1 × 10^−5 M SNP): 78.4 ± 13.0%
acetylcholine-induced endothelium-dependent relaxation of microvascular ([1]; 100 mg/kg, 1 × 10^−6 M Ach): 82.9 ± 8.5 %
sodium nitroprusside endothelium-independent relaxation of microvascular ([1]; 100 mg/kg, 1 × 10^−6 M SNP): 64.6 ± 12.2%
acetylcholine-induced endothelium-dependent relaxation of microvascular ([1]; 100 mg/kg, 1 × 10^−7 M Ach): 43.1 ± 21.8%
sodium nitroprusside endothelium-independent relaxation of microvascular ([1]; 100 mg/kg, 1 × 10^−7 M SNP): 51.5 ± 17.9%
acetylcholine-induced endothelium-dependent relaxation of microvascular ([1]; 100 mg/kg, 1 × 10^−8 M Ach): 18.6 ± 17.2%
sodium nitroprusside endothelium-independent relaxation of microvascular ([1]; 100 mg/kg, 1 × 10^−8 M SNP): 44.9 ± 21.9%
acetylcholine-induced endothelium-dependent relaxation of microvascular ([1]; 100 mg/kg, 1 × 10^−9 M Ach): 10.2 ± 12.0%
sodium nitroprusside endothelium-independent relaxation of microvascular ([1]; 100 mg/kg, 1 × 10^−9 M SNP): 33.9 ± 23.5%
acetylcholine-induced endothelium-dependent relaxation of microvascular ([1]; 100 mg/kg, 1 × 10^−10 M Ach): 2.37 ± 3.4%
sodium nitroprusside endothelium-independent relaxation of microvascular ([1]; 100 mg/kg, 1 × 10^−10 M SNP): 11.9 ± 13.5%
acetylcholine-induced endothelium-dependent relaxation response ([1]; 100 mg/kg, compared with the model control group): significantly improve
sodium nitroprusside endothelium-independent relaxation of microvascular ([1]; 200 mg/kg, 1 × 10^−3 M SNP): 96.9 ± 2.9%
sodium nitroprusside endothelium-independent relaxation of microvascular ([1]; 200 mg/kg, 1 × 10^−4 M SNP): 91.3 ± 6.2%
acetylcholine-induced endothelium-dependent relaxation of microvascular ([1]; 200 mg/kg, 1 × 10^−5 M Ach): 96.9 ± 14.2 %
sodium nitroprusside endothelium-independent relaxation of microvascular ([1]; 200 mg/kg, 1 × 10^−5 M SNP): 75.3 ± 12.6%
acetylcholine-induced endothelium-dependent relaxation of microvascular ([1]; 200 mg/kg, 1 × 10^−6 M Ach): 73.3 ± 17.5 %
sodium nitroprusside endothelium-independent relaxation of microvascular ([1]; 200 mg/kg, 1 × 10^−6 M SNP): 58.0 ± 21.3%
acetylcholine-induced endothelium-dependent relaxation of microvascular ([1]; 200 mg/kg, 1 × 10^−7 M Ach): 42.2 ± 20.8%
sodium nitroprusside endothelium-independent relaxation of microvascular ([1]; 200 mg/kg, 1 × 10^−7 M SNP): 44.9 ± 27.8%
acetylcholine-induced endothelium-dependent relaxation of microvascular ([1]; 200 mg/kg, 1 × 10^−8 M Ach): 32.0 ± 20.1%
sodium nitroprusside endothelium-independent relaxation of microvascular ([1]; 200 mg/kg, 1 × 10^−8 M SNP): 39.4 ± 24.2%
acetylcholine-induced endothelium-dependent relaxation of microvascular ([1]; 200 mg/kg, 1 × 10^−9 M Ach): 18.8 ± 17.5%
sodium nitroprusside endothelium-independent relaxation of microvascular ([1]; 200 mg/kg, 1 × 10^−9 M SNP): 28.9 ± 29.5%
acetylcholine-induced endothelium-dependent relaxation of microvascular ([1]; 200 mg/kg, 1 × 10^−10 M Ach): 9.5 ± 12.0%
sodium nitroprusside endothelium-independent relaxation of microvascular ([1]; 200 mg/kg, 1 × 10^−10 M SNP): 19.4 ± 3.05%
